Source: PMC5218480 (PLoS ONE, 2017)

Tested on: MV-4-11 cells
Experiment: Gene expression microarray analysis (Affymetrix PrimeView) and GSEA
Format: cell-based, human
Set-up: RFU PODN (11730768_x_at) / Fold change /veh PODN (11730768_x_at) / RFU LINC00158 (11744669_a_at) / Fold change /veh LINC00158 (11744669_a_at) / RFU DUSP10 (11751237_a_at) / Fold change /veh DUSP10 (11751237_a_at) / RFU ID3 (11757404_x_at) / Fold change /veh ID3 (11757404_x_at) / RFU PLEKHG5 (11737974_s_at) / Fold change /veh PLEKHG5 (11737974_s_at) / RFU LRRC4B (11730491_at) / Fold change /veh LRRC4B (11730491_at) / RFU GIMAP4 (11747438_a_at) / Fold change /veh GIMAP4 (11747438_a_at) / RFU KRT8 (11758183_x_at) / Fold change /veh KRT8 (11758183_x_at) / RFU CNN1 (11734310_a_at) / Fold change /veh CNN1 (11734310_a_at) / RFU VPS37D (11726825_at) / Fold change /veh VPS37D (11726825_at) / RFU C10orf10 (11716522_x_at) / Fold change /veh C10orf10 (11716522_x_at) / RFU KIR2DL2 /// KIR2DL4 /// KIR2DL5A /// KIR2DL5B /// KIR2DS1 /// KIR2DS2 /// KIR2DS3 /// KIR2DS4 /// KIR3DL3 /// KIR3DL3 /// KIR3DS1 (11738374_at) / Fold change /veh KIR2DL2 /// KIR2DL4 /// KIR2DL5A /// KIR2DL5B /// KIR2DS1 /// KIR2DS2 /// KIR2DS3 /// KIR2DS4 /// KIR3DL3 /// KIR3DL3 /// KIR3DS1 (11738374_at) / RFU C1QL1 (11718748_at) / Fold change /veh C1QL1 (11718748_at) / RFU TMPRSS4 (11747572_a_at) / Fold change /veh TMPRSS4 (11747572_a_at) / RFU HAMP (11756126_x_at) / Fold change /veh HAMP (11756126_x_at) / RFU RNFT2 (11725882_a_at) / Fold change /veh RNFT2 (11725882_a_at) / RFU NR4A2 (11747474_a_at) / Fold change /veh NR4A2 (11747474_a_at) / RFU ABCC12 (11746883_a_at) / Fold change /veh ABCC12 (11746883_a_at) / RFU TMEM136 (11760407_x_at) / Fold change /veh TMEM136 (11760407_x_at) / RFU CLDN22 /// WWC2 (11732394_at) / Fold change /veh CLDN22 /// WWC2 (11732394_at) / RFU HLA-DPB1 (11760878_x_at) / Fold change /veh HLA-DPB1 (11760878_x_at) / RFU SPINT1 (11716480_a_at) / Fold change /veh SPINT1 (11716480_a_at) / RFU GAP43 (11754022_s_at) / Fold change /veh GAP43 (11754022_s_at) / RFU A4GNT (11735810_at) / Fold change /veh A4GNT (11735810_at) / RFU PRB3 (11715151_x_at) / Fold change /veh PRB3 (11715151_x_at) / RFU TUBB4B (11761932_at) / Fold change /veh TUBB4B (11761932_at) / RFU CAPN14 (11732068_a_at) / Fold change /veh CAPN14 (11732068_a_at) / RFU TMCC2 (11721928_a_at) / Fold change /veh TMCC2 (11721928_a_at) / RFU IRGQ (11745062_a_at) / Fold change /veh IRGQ (11745062_a_at) / RFU FAM174B (11720279_a_at) / Fold change /veh FAM174B (11720279_a_at) / RFU TMPRSS4 (11748680_a_at) / Fold change /veh TMPRSS4 (11748680_a_at) / RFU FAM212B (11763350_a_at) / Fold change /veh FAM212B (11763350_a_at) / RFU PLEKHG5 (11743358_a_at) / Fold change /veh PLEKHG5 (11743358_a_at) / RFU ZSCAN30 (11745921_a_at) / Fold change /veh ZSCAN30 (11745921_a_at) / RFU CMKLR1 (11741424_a_at) / Fold change /veh CMKLR1 (11741424_a_at) / RFU LOC101060620 /// MAPK8IP1 (11723275_at) / Fold change /veh LOC101060620 /// MAPK8IP1 (11723275_at) / RFU SPTSSB (11747773_x_at) / Fold change /veh SPTSSB (11747773_x_at) / RFU PRSS12 (11739890_at) / Fold change /veh PRSS12 (11739890_at) / RFU BIN1 (11741810_x_at) / Fold change /veh BIN1 (11741810_x_at) / RFU WNT11 (11732464_a_at) / Fold change /veh WNT11 (11732464_a_at) / RFU C10orf10 (11716521_a_at) / Fold change /veh C10orf10 (11716521_a_at) / RFU C5orf56 (11738089_at) / Fold change /veh C5orf56 (11738089_at) / RFU CYB561 (11721691_x_at) / Fold change /veh CYB561 (11721691_x_at) / RFU ANKRD19P (11752326_a_at) / Fold change /veh ANKRD19P (11752326_a_at) / RFU OR2T12 /// OR2T33 /// OR2T8 (11738714_s_at) / Fold change /veh OR2T12 /// OR2T33 /// OR2T8 (11738714_s_at) / RFU VCAN (11748164_a_at) / Fold change /veh VCAN (11748164_a_at) / RFU JSRP1 (11732532_at) / Fold change /veh JSRP1 (11732532_at) / RFU KRTAP10-11 (11738290_x_at) / Fold change /veh KRTAP10-11 (11738290_x_at) / RFU MYO3A (11730013_a_at) / Fold change /veh MYO3A (11730013_a_at) / RFU EBF3 (11725865_a_at) / Fold change /veh EBF3 (11725865_a_at) / RFU CAMK2N1 (11719241_x_at) / Fold change /veh CAMK2N1 (11719241_x_at) / RFU C5orf56 (11738088_a_at) / Fold change /veh C5orf56 (11738088_a_at) / RFU OLFML3 (11715873_a_at) / Fold change /veh OLFML3 (11715873_a_at) / RFU LOC100653217 /// NTM (11731650_a_at) / Fold change /veh LOC100653217 /// NTM (11731650_a_at) / RFU MAPK11 (11762145_a_at) / Fold change /veh MAPK11 (11762145_a_at) / RFU FIZ1 (11724087_x_at) / Fold change /veh FIZ1 (11724087_x_at) / RFU OASL (11726364_x_at) / Fold change /veh OASL (11726364_x_at) / RFU SOX15 (11748057_x_at) / Fold change /veh SOX15 (11748057_x_at) / RFU CD79A (11719716_a_at) / Fold change /veh CD79A (11719716_a_at) / RFU HIST1H1D (11736915_at) / Fold change /veh HIST1H1D (11736915_at) / RFU CASKIN2 (11723855_a_at) / Fold change /veh CASKIN2 (11723855_a_at) / RFU LOC730098 (11760151_x_at) / Fold change /veh LOC730098 (11760151_x_at) / RFU OR4N2 (11742367_at) / Fold change /veh OR4N2 (11742367_at) / RFU PRRT2 (11749266_a_at) / Fold change /veh PRRT2 (11749266_a_at) / RFU SNX32 (11753110_a_at) / Fold change /veh SNX32 (11753110_a_at) / RFU CDHR5 (11726645_a_at) / Fold change /veh CDHR5 (11726645_a_at) / RFU RCAN1 (11760418_a_at) / Fold change /veh RCAN1 (11760418_a_at) / RFU FAM167A (11723789_a_at) / Fold change /veh FAM167A (11723789_a_at) / RFU FAM26E (11764081_at) / Fold change /veh FAM26E (11764081_at) / RFU ISYNA1 (11749810_s_at) / Fold change /veh ISYNA1 (11749810_s_at) / RFU ACY1 (11761880_at) / Fold change /veh ACY1 (11761880_at) / RFU 11764098_at / Fold change /veh 11764098_at / RFU SAMD14 (11745864_x_at) / Fold change /veh SAMD14 (11745864_x_at) / RFU NPB (11741838_a_at) / Fold change /veh NPB (11741838_a_at) / RFU TMPRSS6 (11731388_a_at) / Fold change /veh TMPRSS6 (11731388_a_at) / RFU KRTAP10-2 (11738614_at) / Fold change /veh KRTAP10-2 (11738614_at) / RFU ARHGAP8 /// PRR5-ARHGAP8 (11727945_x_at) / Fold change /veh ARHGAP8 /// PRR5-ARHGAP8 (11727945_x_at) / RFU KRTAP5-7 /// NADSYN1 (11734609_at) / Fold change /veh KRTAP5-7 /// NADSYN1 (11734609_at) / RFU RASL12 (11751679_a_at) / Fold change /veh RASL12 (11751679_a_at) / RFU CDKN2B (11736163_a_at) / Fold change /veh CDKN2B (11736163_a_at) / RFU PRF1 (11729649_at) / Fold change /veh PRF1 (11729649_at) / RFU, ZNF638 /// ZNF638-IT1 / Fold change vs veh, ZNF638 /// ZNF638-IT1 / RFU, PANK3 / Fold change vs veh, PANK3 / RFU, SH3YL1 / Fold change vs veh, SH3YL1 / RFU, ZEB2 / Fold change vs veh, ZEB2 / RFU, NRIP1 / Fold change vs veh, NRIP1 / RFU, PTTG1IP / Fold change vs veh, PTTG1IP / RFU, CAPN2 / Fold change vs veh, CAPN2 / RFU, MED14 / Fold change vs veh, MED14 / RFU, SNORA58 / Fold change vs veh, SNORA58 / RFU, C1orf63 / Fold change vs veh, C1orf63 / RFU, LRRFIP1 / Fold change vs veh, LRRFIP1 / RFU, NDUFAF7 / Fold change vs veh, NDUFAF7 / RFU, SLC12A2 / Fold change vs veh, SLC12A2 / RFU, IBTK / Fold change vs veh, IBTK / RFU, ESF1 / Fold change vs veh, ESF1 / Fold change vs veh, TMEM50B / RFU, TAOK1 / Fold change vs veh, TAOK1 / RFU, ACBD3 / Fold change vs veh, ACBD3 / RFU, TMA16 / Fold change vs veh, TMA16 / RFU, RWDD3 / Fold change vs veh, RWDD3 / RFU, BCAT1 / Fold change vs veh, BCAT1 / RFU, EDEM3 / Fold change vs veh, EDEM3 / RFU, TMEM33 / Fold change vs veh, TMEM33 / RFU, WDR75 / Fold change vs veh, WDR75 / RFU, AHCTF1 / Fold change vs veh, AHCTF1 / RFU, TFRC / Fold change vs veh, TFRC / RFU, ZDHHC17 / Fold change vs veh, ZDHHC17 / RFU, NOM1 / Fold change vs veh, NOM1 / RFU, ARL8B / Fold change vs veh, ARL8B / RFU, ZBTB11 / Fold change vs veh, ZBTB11 / RFU, TAMM41 / Fold change vs veh, TAMM41 / RFU, KIAA1704 /// LOC100996395 / Fold change vs veh, KIAA1704 /// LOC100996395 / RFU, ING1 / Fold change vs veh, ING1 / RFU, TRMT61B / Fold change vs veh, TRMT61B / RFU, FUBP3 / Fold change vs veh, FUBP3 / RFU, TP53 / Fold change vs veh, TP53 / RFU, TNKS2 / Fold change vs veh, TNKS2 / RFU, ZFP14 / Fold change vs veh, ZFP14 / RFU, ACTR2 / Fold change vs veh, ACTR2 / RFU, PPP3R1 / Fold change vs veh, PPP3R1 / RFU, PIK3R1 / Fold change vs veh, PIK3R1 / RFU, HNRNPA1 / Fold change vs veh, HNRNPA1 / RFU, RNF170 / Fold change vs veh, RNF170 / RFU, ZNF28 / Fold change vs veh, ZNF28 / RFU, RNGTT / Fold change vs veh, RNGTT / RFU, OGT / Fold change vs veh, OGT / RFU, BRD1 / Fold change vs veh, BRD1 / RFU, MARS / Fold change vs veh, MARS / RFU, ZNF655 / Fold change vs veh, ZNF655 / RFU, FAHD1 / Fold change vs veh, FAHD1 / RFU, BDP1 / Fold change vs veh, BDP1 / RFU, LRRCC1 / Fold change vs veh, LRRCC1 / RFU, ARID1A / Fold change vs veh, ARID1A / RFU, ZNF146 / Fold change vs veh, ZNF146 / RFU, ZNF330 / Fold change vs veh, ZNF330 / RFU, GPN3 / Fold change vs veh, GPN3 / RFU, C9orf123 / Fold change vs veh, C9orf123 / RFU, N4BP2L2 / Fold change vs veh, N4BP2L2 / RFU, ARFIP1 / Fold change vs veh, ARFIP1 / RFU, FAM179B / Fold change vs veh, FAM179B / RFU, BCL10 / Fold change vs veh, BCL10 / RFU, UHRF1BP1L / Fold change vs veh, UHRF1BP1L / RFU, BET1 / Fold change vs veh, BET1 / RFU, CNOT2 / Fold change vs veh, CNOT2 / RFU, ZNF268 / Fold change vs veh, ZNF268 / Fold change vs veh, ZNF507 / RFU, DGCR2 / Fold change vs veh, DGCR2 / RFU, WDSUB1 / Fold change vs veh, WDSUB1 / Fold change vs veh, HSP90B1 /// MIR3652 / RFU, ADSS / Fold change vs veh, ADSS / RFU, GK / Fold change vs veh, GK / RFU, ZNF148 / Fold change vs veh, ZNF148 / RFU, TAF9 / Fold change vs veh, TAF9 / RFU, SLC1A5 / Fold change vs veh, SLC1A5 / RFU, SLMO2 / Fold change vs veh, SLMO2 / RFU, ABCC4 / Fold change vs veh, ABCC4 / RFU, LOC101060439 /// RAP1B / Fold change vs veh, LOC101060439 /// RAP1B / RFU, RFX7 / Fold change vs veh, RFX7 / RFU, GTPBP10 / Fold change vs veh, GTPBP10 / RFU, CNEP1R1 / Fold change vs veh, CNEP1R1 / RFU, BIVM-ERCC5 /// ERCC5 / Fold change vs veh, BIVM-ERCC5 /// ERCC5 / RFU, ILF3 / Fold change vs veh, ILF3 / RFU 11762660_at / Fold change /veh 11762660_at / RFU VCAN (11757783_s_at) / Fold change /veh VCAN (11757783_s_at) / RFU DDX43 (11728927_at) / Fold change /veh DDX43 (11728927_at) / RFU KRT8 (11758188_x_at) / Fold change /veh KRT8 (11758188_x_at) / RFU NKD1 (11759106_at) / Fold change /veh NKD1 (11759106_at) / RFU SRD5A1 (11742802_a_at) / Fold change /veh SRD5A1 (11742802_a_at) / RFU TPSAB1 /// TPSB2 (11721975_s_at) / Fold change /veh TPSAB1 /// TPSB2 (11721975_s_at) / RFU GSTM3 (11746129_a_at) / Fold change /veh GSTM3 (11746129_a_at) / RFU IL23R (11737362_x_at) / Fold change /veh IL23R (11737362_x_at) / RFU TMEM51 (11727254_a_at) / Fold change /veh TMEM51 (11727254_a_at) / RFU PIWIL2 (11732686_x_at) / Fold change /veh PIWIL2 (11732686_x_at) / RFU ORM1 (11744905_x_at) / Fold change /veh ORM1 (11744905_x_at) / RFU CCDC152 (11743942_at) / Fold change /veh CCDC152 (11743942_at) / RFU ECM1 (11717891_a_at) / Fold change /veh ECM1 (11717891_a_at) / RFU IL23R (11748794_a_at) / Fold change /veh IL23R (11748794_a_at) / RFU TNFAIP8L3 (11732012_x_at) / Fold change /veh TNFAIP8L3 (11732012_x_at) / RFU MBOAT4 (11741988_at) / Fold change /veh MBOAT4 (11741988_at) / RFU 11764193_at / Fold change /veh 11764193_at / RFU TMEM53 (11763286_at) / Fold change /veh TMEM53 (11763286_at) / RFU MAGEB2 (11727129_at) / Fold change /veh MAGEB2 (11727129_at) / RFU TMEM200A (11744735_a_at) / Fold change /veh TMEM200A (11744735_a_at) / RFU CCDC152 (11751479_a_at) / Fold change /veh CCDC152 (11751479_a_at) / RFU FAM211A (11726209_a_at) / Fold change /veh FAM211A (11726209_a_at) / RFU RGS16 (11746705_a_at) / Fold change /veh RGS16 (11746705_a_at) / RFU VCAN (11755009_s_at) / Fold change /veh VCAN (11755009_s_at) / RFU RHOB (11743442_s_at) / Fold change /veh RHOB (11743442_s_at) / RFU RGS16 (11720943_a_at) / Fold change /veh RGS16 (11720943_a_at) / RFU RGS16 (11720944_at) / Fold change /veh RGS16 (11720944_at) / RFU, VPS4B / Fold change vs veh, VPS4B / RFU, CREB1 / Fold change vs veh, CREB1 / RFU, DNAJC13 / Fold change vs veh, DNAJC13 / RFU, GNAQ / Fold change vs veh, GNAQ / RFU, CDK5R1 / Fold change vs veh, CDK5R1 / RFU, ZRANB3 / Fold change vs veh, ZRANB3 / RFU, CUL4A / Fold change vs veh, CUL4A / RFU, CCNY / Fold change vs veh, CCNY / RFU, UFL1 / Fold change vs veh, UFL1 / RFU, COG3 / Fold change vs veh, COG3 / RFU, DIAPH2 / Fold change vs veh, DIAPH2 / RFU, SKA2 / Fold change vs veh, SKA2 / RFU, AFF3 / Fold change vs veh, AFF3 / RFU, LMF1 / Fold change vs veh, LMF1 / RFU, IPO11 / Fold change vs veh, IPO11 / RFU, DFFB / Fold change vs veh, DFFB / RFU, FOXP1 / Fold change vs veh, FOXP1 / RFU, CARD8 / Fold change vs veh, CARD8 / RFU, STRN3 / Fold change vs veh, STRN3 / RFU, ADK / Fold change vs veh, ADK / RFU, RASSF2 / Fold change vs veh, RASSF2 / RFU, WIPF1 / Fold change vs veh, WIPF1 / RFU, LARP1B / Fold change vs veh, LARP1B / RFU, RASA1 / Fold change vs veh, RASA1 / RFU, RB1 / Fold change vs veh, RB1 / RFU, PPFIA1 / Fold change vs veh, PPFIA1 / RFU, MAT2A / Fold change vs veh, MAT2A / RFU, CCT5 / Fold change vs veh, CCT5 / RFU, WDR92 / Fold change vs veh, WDR92 / RFU, CUX1 / Fold change vs veh, CUX1 / RFU, TTC7A / Fold change vs veh, TTC7A / RFU, TMEM135 / Fold change vs veh, TMEM135 / RFU, DEPTOR / Fold change vs veh, DEPTOR / RFU, CPM / Fold change vs veh, CPM / RFU, DNAJB6 / Fold change vs veh, DNAJB6 / RFU, CACNA2D3 / Fold change vs veh, CACNA2D3 / RFU, DTX4 / Fold change vs veh, DTX4 / RFU, TFCP2 / Fold change vs veh, TFCP2 / RFU, GMCL1 /// GMCL1P1 / Fold change vs veh, GMCL1 /// GMCL1P1 / RFU, AEBP2 / Fold change vs veh, AEBP2 / RFU, SNHG1 /// SNORD22 /// SNORD25 /// SNORD26 /// SNORD27 /// SNORD28 /// SNORD29 /// SNORD31 / Fold change vs veh, SNHG1 /// SNORD22 /// SNORD25 /// SNORD26 /// SNORD27 /// SNORD28 /// SNORD29 /// SNORD31 / Fold change (Aza/veh), C12orf56 (ProbeSet 11735607_a_at) / Fold change (ACY-1035/veh), C12orf56 (ProbeSet 11735607_a_at) / Fold change (Aza/veh), FGFR1OP (ProbeSet 11751329_s_at) / Fold change (ACY-1035/veh), FGFR1OP (ProbeSet 11751329_s_at) / Fold change (Aza/veh), VPS36 (ProbeSet 11739960_a_at) / Fold change (ACY-1035/veh), VPS36 (ProbeSet 11739960_a_at) / RFU SYPL1 (11715823_x_at) / Fold change /veh SYPL1 (11715823_x_at) / RFU IGFBP7 (11715501_s_at) / Fold change /veh IGFBP7 (11715501_s_at) / RFU REEP3 (11722064_at) / Fold change /veh REEP3 (11722064_at) / RFU IGLL1 (11728026_x_at) / Fold change /veh IGLL1 (11728026_x_at): dose or concentration left out as unconfirmed
Details: ProbeSet 11716931_at; LIST B

Question: For `Nc1ncn([C@@H]2O[C@H](CO)[C@@H](O)[C@H]2O)c(=O)n1` [azacitidine], which “Fold change vs veh, DGCR2” value is on record?
Answer: 0.93
